Results taken from ChEMBL document CHEMBL1833945, “Synthesis and anticonvulsant activity of new N-Mannich bases derived from 5-cyclopropyl-5-phenyl- and 5-cyclopropyl-5-(4-chlorophenyl)-imidazolidine-2,4-diones” (Bioorg Med Chem, 2011).
Blank lines part the entries; values can stand above or below the compound they belong to. Activity calls are given as the source filed them. No cut-off for these calls is given here.

How the values were obtained:
Rattus norvegicus [1] = test: Neurotoxicity in Sprague-Dawley albino rat assessed as motor impairment at 30 mg/kg, po after 4 hrs by rotarod test; type: toxicity, organism-based; design: dose 30 mg/kg, route oral; details: in vivo
Rattus norvegicus [2] = test: Neurotoxicity in Sprague-Dawley albino rat assessed as motor impairment at 30 mg/kg, po after 2 hrs by rotarod test; type: toxicity, organism-based; design: dose 30 mg/kg, route oral; details: in vivo
Rattus norvegicus [3] = test: Neurotoxicity in Sprague-Dawley albino rat assessed as motor impairment at 30 mg/kg, po after 1 hrs by rotarod test; type: toxicity, organism-based; design: dose 30 mg/kg, route oral; details: in vivo
Rattus norvegicus [4] = test: Neurotoxicity in Sprague-Dawley albino rat assessed as motor impairment at 30 mg/kg, po after 0.5 hrs by rotarod test; type: toxicity, organism-based; design: dose 30 mg/kg, route oral; details: in vivo
Rattus norvegicus [5] = test: Neurotoxicity in Sprague-Dawley albino rat assessed as motor impairment at 30 mg/kg, po after 0.25 hrs by rotarod test; type: toxicity, organism-based; design: dose 30 mg/kg, route oral; details: in vivo
Rattus norvegicus [6] = test: Anticonvulsant activity in Sprague-Dawley albino rat assessed as protection against maximal electroshock-induced seizures at 30 mg/kg, po after 4 hrs; type: functional, organism-based; design: dose 30 mg/kg
Rattus norvegicus [7] = test: Anticonvulsant activity in Sprague-Dawley albino rat assessed as protection against maximal electroshock-induced seizures at 30 mg/kg, po after 0.5 hrs; type: functional, organism-based; design: dose 30 mg/kg
Rattus norvegicus [8] = test: Anticonvulsant activity in Sprague-Dawley albino rat assessed as protection against maximal electroshock-induced seizures at 30 mg/kg, po after 0.25 hrs; type: functional, organism-based; design: dose 30 mg/kg
Mus musculus [9] = test: Neurotoxicity in CF1 albino mouse assessed as impair in motor coordination at 300 mg/kg, ip after 4 hrs by rotarod test; type: toxicity, organism-based; design: dose 300 mg/kg, route intraperitoneal; details: in vivo
Mus musculus [10] = test: Neurotoxicity in CF1 albino mouse assessed as impair in motor coordination at 300 mg/kg, ip after 0.5 hrs by rotarod test; type: toxicity, organism-based; design: dose 300 mg/kg, route intraperitoneal; details: in vivo
Rattus norvegicus [11] = species on record: Rattus norvegicus; test: Protective index, ratio of TD50 for neurotoxicity in Sprague-Dawley albino rat to ED50 for inhibition of maximal electroshock-induced seizures in Sprague-Dawley albino rat; type: functional
[12] = Neurotoxicity in oral dosed Sprague-Dawley albino rat assessed as motor impairment by rotarod test; type: toxicity, organism-based; details: in vivo
Rattus norvegicus [13] = test: Anticonvulsant activity in po dosed Sprague-Dawley albino rat assessed as protection against maximal electroshock-induced seizures; type: functional
Rattus norvegicus [14] = test: Anticonvulsant activity in po dosed Sprague-Dawley albino rat assessed as time to peak effect; type: functional
Mus musculus [15] = test: Anticonvulsant activity in ip dosed CF1 albino mouse assessed as protection against maximal electroshock-induced seizures after 4 hrs; type: functional; details: read-out: MED
[16] = Lipophilicity, log P of compound; type: physicochemical; details: octanol/water
Mus musculus [17] = test: Anticonvulsant activity in ip dosed CF1 albino mouse assessed as protection against maximal electroshock-induced seizures after 0.5 hrs; type: functional; details: read-out: MED
Mus musculus [18] = test: Toxicity in subcutaneous pentylenetetrazole-induced CF1 albino mouse assessed as myoclonic jerks at 300 mg/kg, ip after 0.5 hrs; type: organism-based; design: dose 300 mg/kg; details: in vivo, sc
Mus musculus [19] = test: Toxicity in subcutaneous pentylenetetrazole-induced CF1 albino mouse assessed as myoclonic jerks at 300 mg/kg, ip after 4 hrs; type: organism-based; design: dose 300 mg/kg; details: in vivo, sc
Rattus norvegicus [20] = test: Anticonvulsant activity in po dosed Sprague-Dawley albino rat assessed as protection against subcutaneous pentylenetetrazole-induced seizures; type: functional
Mus musculus [21] = test: Anticonvulsant activity in CF1 albino mouse assessed as protection against subcutaneous pentylenetetrazole-induced seizures at 300 mg/kg, […] after 4 hrs; type: functional, organism-based; design: dose 300 mg/kg
Mus musculus [22] = test: Anticonvulsant activity in CF1 albino mouse assessed as protection against maximal electroshock-induced seizures at 300 mg/kg, ip after 0.5 hrs; type: functional, organism-based; design: dose 300 mg/kg
Mus musculus [23] = test: Neurotoxicity in ip dosed CF1 albino mouse assessed as minimum dose required to cause impair in motor coordination after 4 hrs by rotarod test; type: toxicity, organism-based; details: in vivo
Mus musculus [24] = test: Neurotoxicity in ip dosed CF1 albino mouse assessed as minimum dose required to cause impair in motor coordination after 0.5 hrs by rotarod test; type: toxicity, organism-based; details: in vivo
Mus musculus [25] = test: Toxicity in subcutaneous pentylenetetrazole-induced CF1 albino mouse assessed as myoclonic jerks at 100 mg/kg, ip after 0.5 hrs; type: organism-based; design: dose 100 mg/kg; details: in vivo, sc
Mus musculus [26] = test: Toxicity in subcutaneous pentylenetetrazole-induced CF1 albino mouse assessed as myoclonic jerks at 100 mg/kg, ip after 4 hrs; type: organism-based; design: dose 100 mg/kg; details: in vivo, sc

logP [16]: 2.92
Structure (SMILES): O=C(OCc1ccccc1)N1CCN(CN2C(=O)NC(c3ccccc3)(C3CC3)C2=O)CC1 (configuration not stated)
Activity (Rattus norvegicus [1]): Non-toxic
Activity (Rattus norvegicus [2]): Non-toxic
Activity (Rattus norvegicus [3]): Non-toxic
Activity (Rattus norvegicus [4]): Non-toxic
Activity (Rattus norvegicus [5]): Non-toxic
Activity (Rattus norvegicus [6]): Active
Activity (Rattus norvegicus [7]): inactive
Activity (Rattus norvegicus [8]): inactive
Activity (Mus musculus [9]): Non-toxic
Activity (Mus musculus [10]): Non-toxic
PI (Rattus norvegicus [11]): >5.98
TD50 [12]: > 60 mg/kg
ED50 (Rattus norvegicus [13]): 10 mg/kg
Time (Rattus norvegicus [14]): 6 h
minimal effective dose (Mus musculus [15]): 100 mg/kg
minimal effective dose (Mus musculus [17]): 300 mg/kg
Activity (Mus musculus [18]): Toxic
Activity (Mus musculus [19]): Toxic

logP [16]: 3.19
Structure (SMILES): CC(c1ccccc1)N1CCN(CN2C(=O)NC(c3ccccc3)(C3CC3)C2=O)CC1 (configuration not stated)
Activity (Rattus norvegicus [1]): Non-toxic
Activity (Rattus norvegicus [2]): Non-toxic
Activity (Rattus norvegicus [3]): Non-toxic
Activity (Rattus norvegicus [4]): Non-toxic
Activity (Rattus norvegicus [5]): Non-toxic
Activity (Mus musculus [9]): Non-toxic
Activity (Mus musculus [10]): Non-toxic
PI (Rattus norvegicus [11]): >18.3
TD50 [12]: > 200 mg/kg
ED50 (Rattus norvegicus [20]): < 100 mg/kg
ED50 (Rattus norvegicus [13]): 10.9 mg/kg
Time (Rattus norvegicus [14]): 2 h
minimal effective dose (Mus musculus [15]): 100 mg/kg
minimal effective dose (Mus musculus [17]): 300 mg/kg
Activity (Mus musculus [19]): Toxic

Structure (SMILES): O=C1NC(c2ccc(Cl)cc2)(C2CC2)C(=O)N1CN1CCN(c2ccccc2F)CC1 (configuration not stated)
Activity (Mus musculus [9]): Non-toxic
Activity (Mus musculus [10]): Non-toxic
Activity (Mus musculus [21]): inactive
Activity (Mus musculus [22]): inactive
minimal effective dose (Mus musculus [15]): 300 mg/kg

logP [16]: 1.46
Structure (SMILES): COCCN1CCN(CN2C(=O)NC(c3ccccc3)(C3CC3)C2=O)CC1 (configuration not stated)
MTC (Mus musculus [23]): 30 mg/kg
MTC (Mus musculus [24]): 30 mg/kg
minimal effective dose (Mus musculus [15]): 100 mg/kg
minimal effective dose (Mus musculus [17]): 100 mg/kg
Activity (Mus musculus [25]): Toxic
Activity (Mus musculus [26]): Toxic
